How the values were obtained:
[1] = biological target: T1, Solute carrier organic anion transporter family member 1A1 (Mus musculus, UniProt Q9QXZ6); assay: (§1) TP_TRANSPORTER: uptake in Xenopus laevis oocytes; assay type: functional, cell-based; settings: oocyte
T1 sequence (Q9QXZ6 whole entry): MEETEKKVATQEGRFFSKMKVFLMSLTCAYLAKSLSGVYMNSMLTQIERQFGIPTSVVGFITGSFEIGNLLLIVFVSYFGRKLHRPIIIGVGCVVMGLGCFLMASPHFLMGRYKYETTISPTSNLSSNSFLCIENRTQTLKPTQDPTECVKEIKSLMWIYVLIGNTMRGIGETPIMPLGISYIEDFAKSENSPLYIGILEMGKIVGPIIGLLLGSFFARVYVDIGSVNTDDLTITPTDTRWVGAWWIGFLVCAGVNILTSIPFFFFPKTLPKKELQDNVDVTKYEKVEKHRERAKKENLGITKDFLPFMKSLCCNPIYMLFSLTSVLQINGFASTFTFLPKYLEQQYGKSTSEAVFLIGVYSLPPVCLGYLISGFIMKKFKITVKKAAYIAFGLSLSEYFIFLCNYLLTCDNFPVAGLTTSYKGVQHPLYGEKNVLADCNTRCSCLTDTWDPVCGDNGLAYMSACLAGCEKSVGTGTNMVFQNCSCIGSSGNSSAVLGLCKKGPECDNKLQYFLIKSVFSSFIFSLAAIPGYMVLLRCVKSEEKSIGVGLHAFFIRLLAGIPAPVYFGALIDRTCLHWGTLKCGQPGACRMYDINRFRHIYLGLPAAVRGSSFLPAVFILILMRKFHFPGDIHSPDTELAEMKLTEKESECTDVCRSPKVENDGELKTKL

[2] = substrate: C[C@]12CC[C@@H]3c4ccc(OS(=O)(=O)O)cc4CC[C@H]3[C@@H]1CCC2=O; assay: as §1; assay type: functional, cell-based, Oocyte

| Molecule | Activity [1] | Km [2] [µM] |
| --- | --- | --- |
| GADOXETATE | substrate [+] | – |
| O=C1OC(c2ccc(O)c(S(=O)(=O)[O-])c2)(c2ccc(O)c(S(=O)(=O)[O-])c2)c2c(Br)c(Br)c(Br)c(Br)c21.[Na+].[Na+] [SULFOBROMOPHTHALEIN SODIUM] | substrate [+] | – |
| C[C@@H]1O[C@@H](O[C@H]2C[C@@H](O)[C@]3(CO)[C@H]4[C@H](O)C[C@]5(C)[C@@H](C6=CC(=O)OC6)CC[C@]5(O)[C@@H]4CC[C@]3(O)C2)[C@H](O)[C@H](O)[C@H]1O [OUABAIN] | substrate [+] | – |
| Solute carrier organic anion transporter family member 1A1 (Mus musculus) (protein) MEETEKKVATQEGRFFSKMKVFLMSLTCAYLAKSLSGVYMNSMLTQIERQFGIPTSVVGFITGSFEIGNLLLIVFVSYFGRKLHRPIIIGVGCVVMGLGCFLMASPHFLMGRYKYETTISPTSNLSSNSFLCIENRTQTLKPTQDPTECVKEIKSLMWIYVLIGNTMRGIGETPIMPLGISYIEDFAKSENSPLYIGILEMGKIVGPIIGLLLGSFFARVYVDIGSVNTDDLTITPTDTRWVGAWWIGFLVCAGVNILTSIPFFFFPKTLPKKELQDNVDVTKYEKVEKHRERAKKENLGITKDFLPFMKSLCCNPIYMLFSLTSVLQINGFASTFTFLPKYLEQQYGKSTSEAVFLIGVYSLPPVCLGYLISGFIMKKFKITVKKAAYIAFGLSLSEYFIFLCNYLLTCDNFPVAGLTTSYKGVQHPLYGEKNVLADCNTRCSCLTDTWDPVCGDNGLAYMSACLAGCEKSVGTGTNMVFQNCSCIGSSGNSSAVLGLCKKGPECDNKLQYFLIKSVFSSFIFSLAAIPGYMVLLRCVKSEEKSIGVGLHAFFIRLLAGIPAPVYFGALIDRTCLHWGTLKCGQPGACRMYDINRFRHIYLGLPAAVRGSSFLPAVFILILMRKFHFPGDIHSPDTELAEMKLTEKESECTDVCRSPKVENDGELKTKL | – | 5 |

From ChEMBL document CHEMBL2073910, “Molecular cloning and functional characterization of the mouse organic-anion-transporting polypeptide 1 (Oatp1) and mapping of the gene to chromosome X” (Biochem J, 2000)
